Each block holds one molecule with its values, some of them ahead of it.
Tests used:
in vivo [1] = settings: CD-1, mouse, po, 10 mg/kg
in vivo [2] = settings: CD-1, mouse, po, 10 mg/kg; remark: listed apart in the source
in vivo [3] = settings: CD-1, mouse, po, 10 mg/kg; remark: listed apart in the source
in vitro [4] = settings: mouse, hepatocytes
in vitro [5] = settings: human, Caco-2
[6] = AUC(0 to t) in collagen-induced arthritis mouse at 10 mg/kg, po measured at day 9; format: ADME, organism-based; parameters: time 9 day, dose 10 mg/kg, route po; settings: in vivo
[7] = Cmax in collagen-induced arthritis mouse at 10 mg/kg, po measured at day 19; format: ADME, organism-based; parameters: dose 10 mg/kg, time 19 day, route po; settings: in vivo
[8] = Lipophilicity, logD of the compound at pH 7.4; format: physicochemical; settings: buffer
[9] = Cmax in collagen-induced arthritis mouse at 50 mg/kg, po measured at day 19; format: ADME, organism-based; parameters: dose 50 mg/kg, time 19 day, route po; settings: in vivo
[10] = AUC(0 to t) in collagen-induced arthritis mouse at 50 mg/kg, po measured at day 9; format: ADME, organism-based; parameters: time 9 day, dose 50 mg/kg, route po; settings: in vivo
[11] = Dose normalized AUC(0 to t) in collagen-induced arthritis mouse at 50 mg/kg, po measured at day 2; format: ADME, organism-based; settings: in vivo, 48 h, time 2 day
[12] = Cmax in collagen-induced arthritis mouse at 50 mg/kg, po measured at day 2; format: ADME, organism-based; parameters: dose 50 mg/kg, time 2 day, route po; settings: in vivo
[13] = AUC(0 to t) in collagen-induced arthritis mouse at 10 mg/kg, po measured at day 19; format: ADME, organism-based; parameters: dose 10 mg/kg, time 19 day, route po; settings: in vivo
[14] = AUC(0 to t) in collagen-induced arthritis mouse at 10 mg/kg, po measured at day 2; format: ADME, organism-based; parameters: time 2 day, dose 10 mg/kg, route po; settings: in vivo
[15] = Dose normalized AUC(0 to t) in collagen-induced arthritis mouse at 50 mg/kg, po measured at day 19; format: ADME, organism-based; settings: in vivo, 456 h, time 19 day
[16] = Dose normalized AUC(0 to t) in collagen-induced arthritis mouse at 50 mg/kg, po measured at day 9; format: ADME, organism-based; settings: in vivo, 216 h, time 9 day
[17] = Cmax in collagen-induced arthritis mouse at 50 mg/kg, po measured at day 9; format: ADME, organism-based; parameters: dose 50 mg/kg, time 9 day, route po; settings: in vivo
[18] = Cmax in collagen-induced arthritis mouse at 10 mg/kg, po measured at day 9; format: ADME, organism-based; parameters: time 9 day, dose 10 mg/kg, route po; settings: in vivo
[19] = Cmax in collagen-induced arthritis mouse at 10 mg/kg, po measured at day 2; format: ADME, organism-based; parameters: dose 10 mg/kg, time 2 day, route po; settings: in vivo
[20] = Dose normalized AUC(0 to t) in collagen-induced arthritis mouse at 10 mg/kg, po measured at day 9; format: ADME, organism-based; settings: in vivo, 216 h, time 9 day
[21] = AUC(0 to t) in collagen-induced arthritis mouse at 50 mg/kg, po measured at day 19; format: ADME, organism-based; parameters: dose 50 mg/kg, time 19 day, route po; settings: in vivo
[22] = Dose normalized AUC(0 to t) in collagen-induced arthritis mouse at 10 mg/kg, po measured at day 19; format: ADME, organism-based; settings: in vivo, 456 h, time 19 day
[23] = Dose normalized AUC(0 to t) in collagen-induced arthritis mouse at 10 mg/kg, po measured at day 2; format: ADME, organism-based; settings: in vivo, 48 h, time 2 day
[24] = AUC(0 to t) in collagen-induced arthritis mouse at 50 mg/kg, po measured at day 2; format: ADME, organism-based; parameters: dose 50 mg/kg, time 2 day, route po; settings: in vivo

- AUC(0-t) (in vivo [1]): 2.34 µM·h
- bioavailability (in vivo [2]): 35%
- Cmax (in vivo [3]): 0.9 µM
- hepatocyte CLint at 1 h, 1 µM (in vitro [4]): 32 µL/min/1e6 cells
Structure (SMILES): CCCOc1ccc(NC(=O)C(C)(C)c2csc(NS(=O)(=O)C3CC3)n2)cc1

Structure (SMILES): CS(=O)(=O)Nc1nc(CC(=O)Nc2cccc(Cl)c2)cs1
- pKa (physchem): 6.58

- Papp A→B at 2 h, 10 µM (in vitro [5]): 9.9 ×10⁻⁶ cm/s
- AUC(0-t) (in vivo [1]): 56.1 µM·h
- bioavailability (in vivo [2]): 95%
- Cmax (in vivo [3]): 11.1 µM
- hepatocyte CLint at 1 h, 1 µM (in vitro [4]): < 1 µL/min/1e6 cells
Structure (SMILES): CC(C)(C(=O)Nc1ccc(-c2cncc(C(F)(F)F)n2)cc1F)c1csc(NS(=O)(=O)C2CC2)n1

- AUC(0-t) at 216 h [6]: 11900 ng·h/mL
- Cmax [7]: 3570 ng/mL
- logD [8]: 2.46
- Cmax [9]: 13000 ng/mL
- AUC(0-t) at 216 h [10]: 29400 ng·h/mL
- Papp A→B at 2 h, 10 µM (in vitro [5]): 7.1 ×10⁻⁶ cm/s
- AUC(0-t) (in vivo [1]): 25.3 µM·h
- AUCt/dose [11]: 873 ng·h/mL
- Cmax [12]: 7830 ng/mL
- pKa (physchem): 6.26
- AUC(0-t) at 456 h [13]: 10500 ng·h/mL
- AUC(0-t) at 48 h [14]: 15000 ng·h/mL
- AUCt/dose [15]: 1052 ng·h/mL
- AUCt/dose [16]: 587 ng·h/mL
- Cmax (in vivo [3]): 5.3 µM
- Cmax [17]: 6390 ng/mL
- Cmax [18]: 3360 ng/mL
- Cmax [19]: 4770 ng/mL
- AUCt/dose [20]: 1188 ng·h/mL
- AUC(0-t) at 456 h [21]: 52600 ng·h/mL
- hepatocyte CLint at 1 h, 1 µM (in vitro [4]): 8 µL/min/1e6 cells
- AUCt/dose [22]: 1049 ng·h/mL
- AUCt/dose [23]: 1503 ng·h/mL
- AUC(0-t) at 48 h [24]: 43700 ng·h/mL
Structure (SMILES): CC(C)(C(=O)Nc1ccc(-c2cncc(C(F)(F)F)n2)cn1)c1csc(NS(=O)(=O)C2CC2)n1

Source: ChEMBL document CHEMBL5236608, “Discovery and Optimization of Potent and Orally Available CTP Synthetase Inhibitors for Use in Treatment of Diseases Driven by Aberrant Immune Cell Proliferation” (J Med Chem, 2022)
